Assay results published in patent US20110105392A1 (ELI LILLY AND COMPANY, priority 2008, published 2011).

Tests used:
healthy volunteers = test: Euglycaemic glucose clamp after single SC dose in healthy volunteers; assay type: in vivo, human
Method: In all treatment periods, subjects undergo a euglycaemic clamp procedure for up to 24/36 hours following each insulin compound injection. Glucose infusion rates (GIR) are adjusted to maintain euglycaemia, with the documented GIR over time providing the GD measure of insulin action. The aim of the euglycaemic glucose clamp is to maintain euglycaemia through glucose infusion after the administration of a dose of an insulin compound. It is assumed that endogenous insulin secretion and hepatic glucose output are minimal and that any glucose that is translocated out of the glucose space (i.e., glucose metabolised) is the direct consequence of the administered exogenous insulin. The GIR in this case will be the glucodynamic (GD) measure of the insulin action over time. All glucose clamp studies are performed after an overnight fast of approximately 8 hours. On the morning of the study, a small catheter is placed into a vein of one arm, ideally in the ante-cubital fossa, for administration of 20% dextrose solution (buffered to near neutral pH) under the control of a volumetric pump. Another catheter is placed, ideally in the wrist or hand for venous glucose sampling. This area is heated with a warming device to approximately 55-60° C. for sampling arterialized venous blood. Blood samples are obtained at the bedside for immediate determination of whole blood glucose concentrations using an automated glucose oxidase technique. After basal blood sampling and a stabilization period of approximately 30 minutes, each subject receives a dose of insulin compound administered subcutaneously. The start of the subcutaneous injection of an insulin compound is defined as time zero. Following completion of dosing, in conjunction with frequent blood sampling for measurement of blood glucose, glucose is infused intravenously at a variable rate in order to maintain euglycaemia for up to 24 or 36 hours after insulin administration.
Blood sampling occurs approximately every 10 minutes for approximately 30 minutes prior to dosing and continued every 5-10 minutes for the first 2 hours after dosing (with the option to sample as frequently as every 2.5 minutes), and then reduced to 10-30 minute intervals up to the end of clamp.
During the glucose clamp, the glucose infusion rate is adjusted to maintain a pre-determined target blood glucose concentration for the individual subject. Preferably, the target concentration is close to the fasting blood glucose. The aim of the glucose clamp procedure is to maintain the blood glucose concentrations within +5% of the pre-dose target value, which is defined as 5 mg/dL below the mean fasting blood glucose. Thus, blood glucose concentrations are kept constant while the GIR varied. […]

[1] = calculated from published PK profiles; cited from earlier work

Substance | time GD maintained (healthy volunteers; Part C, 0.5 mg/kg SC) | GIR profile versus peak GIR response for glargine (healthy volunteers; Part C, 0.5 mg/kg SC, glargine 0.5 U/kg) | within subject variability in the glucodynamics (healthy volunteers; humans) | duration of action (healthy volunteers; humans, versus insulin glargine (FIG. 2)) | peak-trough (PT) ratio [1]
LY: 20 kDa PEGylated insulin lispro, about 95% or more at B28, prepared essentially as in Example 9 | greater than 36 hours | exceeded the peak GIR response for glargine | less than 30% | longer than that of insulin glargine | –
insulin glargine | – | – | – | – | 1.2-2.6
